From ChEMBL document CHEMBL5150064 (J Med Chem, 2022) come the findings set out here.

Values after ≈ are worked out from the molar mass of the structure shown.

Series [1] can be described thus: Lipophilicity, logD of compound in 1-Octanol/PBS at pH 7.4 by LC-MS/MS method. Type of series: physicochemical.
The nature of series [2]: Oral bioavailability in Sprague-Dawley rat plasma at 5 mg/kg measured upto 8 hrs by LC-MS/MS method. Type of series: ADME, organism-based.
The nature of series [3]: Thermodynamic solubility of the compound in FaSSIF. It counts as physicochemical. The note with it: read-out: Therm_solubility.
A short description of series [4]: Dissociation constant, pKa of the compound. It counts as physicochemical.
Series [5] in a line: Antiproliferative activity against human KPL-4 cells assessed as reduction in cell viability incubated for 4 days by Celltiter-Glo luminescence assay. It counts as functional, cell-based. Conditions: KPL4, 96 h.
The nature of series [6]: Plasma protein binding in human assessed as unbound fraction at 5 uM incubated for 4 hrs by equllibrium dialysis method. It counts as ADME, cell-free.
For a further series, the species on record is Homo sapiens. Put plainly: Inhibition of PI3KC2b (unknown origin) at 1 uM relative to control.
In a further series the target is hERG (KCNH2) (Homo sapiens, UniProt Q12809). Put plainly: Inhibition of human ERG at 10 uM relative to control. It counts as toxicity.
A further series has as its target CaV1.2 (Homo sapiens, UniProt Q13936). Put plainly: Inhibition of human CaV1.2 at 10 uM relative to control.
In a further series the target is Cytochrome P450 3A4 (Homo sapiens, UniProt P08684). Briefly: Inhibition of CYP3A4 (unknown origin). It counts as ADME.
The next series has as its target Cytochrome P450 2D6 (Homo sapiens, UniProt P10635). Put plainly: Inhibition of CYP2D6 (unknown origin). It counts as ADME.
In the next series the target is T1, Cytochrome P450 2C8 (Homo sapiens, UniProt P10632).
T1 sequence (P10632 whole entry): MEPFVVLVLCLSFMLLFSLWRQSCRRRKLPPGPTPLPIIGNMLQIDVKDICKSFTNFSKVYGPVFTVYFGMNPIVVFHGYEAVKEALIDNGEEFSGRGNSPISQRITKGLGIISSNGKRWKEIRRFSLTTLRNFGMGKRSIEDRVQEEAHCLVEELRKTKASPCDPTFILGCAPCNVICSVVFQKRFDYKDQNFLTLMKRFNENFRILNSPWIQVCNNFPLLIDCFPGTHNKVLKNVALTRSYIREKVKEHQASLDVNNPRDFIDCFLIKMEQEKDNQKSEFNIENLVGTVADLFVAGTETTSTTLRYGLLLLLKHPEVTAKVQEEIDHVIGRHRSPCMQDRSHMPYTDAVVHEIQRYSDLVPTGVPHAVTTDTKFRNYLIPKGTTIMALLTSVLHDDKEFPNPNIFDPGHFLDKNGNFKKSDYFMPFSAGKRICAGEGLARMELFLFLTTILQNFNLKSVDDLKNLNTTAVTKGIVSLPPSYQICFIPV
Briefly: Inhibition of CYP2C8 (unknown origin). Type of series: ADME.

For another series, the target named is Cytochrome P450 2C19 (Homo sapiens, UniProt P33261). Put plainly: Inhibition of CYP2C19 (unknown origin). It counts as ADME.
Sequence of Cytochrome P450 2C19 (P33261 whole entry): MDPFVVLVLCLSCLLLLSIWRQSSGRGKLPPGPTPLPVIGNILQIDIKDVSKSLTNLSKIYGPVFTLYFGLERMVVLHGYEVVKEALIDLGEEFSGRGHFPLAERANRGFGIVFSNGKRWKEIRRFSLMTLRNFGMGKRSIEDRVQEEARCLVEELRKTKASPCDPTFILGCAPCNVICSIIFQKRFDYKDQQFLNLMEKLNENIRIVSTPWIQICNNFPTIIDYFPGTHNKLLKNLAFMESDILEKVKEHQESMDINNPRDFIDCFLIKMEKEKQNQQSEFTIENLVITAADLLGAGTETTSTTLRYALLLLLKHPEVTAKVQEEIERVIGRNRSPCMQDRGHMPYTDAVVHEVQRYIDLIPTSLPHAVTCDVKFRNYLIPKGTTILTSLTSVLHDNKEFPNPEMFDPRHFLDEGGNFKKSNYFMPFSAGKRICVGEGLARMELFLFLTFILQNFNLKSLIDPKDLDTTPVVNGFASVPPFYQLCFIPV

Sequence of hERG (KCNH2) (Q12809 whole entry): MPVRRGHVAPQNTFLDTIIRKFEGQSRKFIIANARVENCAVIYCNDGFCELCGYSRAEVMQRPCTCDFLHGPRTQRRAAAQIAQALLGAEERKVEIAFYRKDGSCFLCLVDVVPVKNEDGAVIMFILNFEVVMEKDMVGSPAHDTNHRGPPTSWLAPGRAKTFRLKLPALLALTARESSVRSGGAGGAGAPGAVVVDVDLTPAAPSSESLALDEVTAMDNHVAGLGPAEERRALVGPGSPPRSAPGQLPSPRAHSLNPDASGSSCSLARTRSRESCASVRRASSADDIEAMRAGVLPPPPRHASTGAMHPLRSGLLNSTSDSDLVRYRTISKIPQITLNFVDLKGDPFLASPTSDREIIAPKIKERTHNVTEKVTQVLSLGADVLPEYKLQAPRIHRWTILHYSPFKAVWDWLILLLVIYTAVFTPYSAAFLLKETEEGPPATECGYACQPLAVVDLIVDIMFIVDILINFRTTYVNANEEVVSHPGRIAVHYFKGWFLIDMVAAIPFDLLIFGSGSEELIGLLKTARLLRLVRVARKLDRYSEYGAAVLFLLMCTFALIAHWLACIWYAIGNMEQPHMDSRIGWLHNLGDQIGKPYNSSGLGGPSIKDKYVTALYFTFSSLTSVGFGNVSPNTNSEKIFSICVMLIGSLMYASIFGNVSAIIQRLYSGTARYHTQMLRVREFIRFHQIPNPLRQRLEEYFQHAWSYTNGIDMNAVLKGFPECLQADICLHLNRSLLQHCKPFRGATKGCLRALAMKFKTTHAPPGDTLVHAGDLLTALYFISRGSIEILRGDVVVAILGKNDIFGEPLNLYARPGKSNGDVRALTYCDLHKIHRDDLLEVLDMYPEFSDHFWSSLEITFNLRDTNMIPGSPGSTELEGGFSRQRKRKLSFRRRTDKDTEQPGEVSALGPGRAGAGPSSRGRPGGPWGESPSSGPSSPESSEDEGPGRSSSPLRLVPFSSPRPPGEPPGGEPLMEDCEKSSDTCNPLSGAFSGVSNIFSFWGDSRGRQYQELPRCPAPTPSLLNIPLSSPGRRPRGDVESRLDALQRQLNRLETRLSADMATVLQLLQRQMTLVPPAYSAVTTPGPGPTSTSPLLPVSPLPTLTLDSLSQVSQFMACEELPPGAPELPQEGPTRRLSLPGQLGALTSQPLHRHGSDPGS
Sequence of Cytochrome P450 3A4 (P08684 whole entry): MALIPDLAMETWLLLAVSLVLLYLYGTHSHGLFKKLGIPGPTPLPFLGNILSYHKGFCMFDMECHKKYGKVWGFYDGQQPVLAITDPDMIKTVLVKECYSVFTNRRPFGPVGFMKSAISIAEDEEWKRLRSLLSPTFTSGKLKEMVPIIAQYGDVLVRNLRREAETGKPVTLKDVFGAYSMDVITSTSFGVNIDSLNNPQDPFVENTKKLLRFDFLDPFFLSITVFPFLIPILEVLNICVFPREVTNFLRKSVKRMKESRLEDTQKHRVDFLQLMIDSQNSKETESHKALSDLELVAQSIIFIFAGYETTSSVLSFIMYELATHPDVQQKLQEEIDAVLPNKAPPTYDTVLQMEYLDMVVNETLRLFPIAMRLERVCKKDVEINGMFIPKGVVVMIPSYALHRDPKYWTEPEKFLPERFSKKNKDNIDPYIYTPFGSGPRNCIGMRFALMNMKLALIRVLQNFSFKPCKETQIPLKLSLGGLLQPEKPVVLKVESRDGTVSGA
Sequence of CaV1.2 (Q13936 whole entry): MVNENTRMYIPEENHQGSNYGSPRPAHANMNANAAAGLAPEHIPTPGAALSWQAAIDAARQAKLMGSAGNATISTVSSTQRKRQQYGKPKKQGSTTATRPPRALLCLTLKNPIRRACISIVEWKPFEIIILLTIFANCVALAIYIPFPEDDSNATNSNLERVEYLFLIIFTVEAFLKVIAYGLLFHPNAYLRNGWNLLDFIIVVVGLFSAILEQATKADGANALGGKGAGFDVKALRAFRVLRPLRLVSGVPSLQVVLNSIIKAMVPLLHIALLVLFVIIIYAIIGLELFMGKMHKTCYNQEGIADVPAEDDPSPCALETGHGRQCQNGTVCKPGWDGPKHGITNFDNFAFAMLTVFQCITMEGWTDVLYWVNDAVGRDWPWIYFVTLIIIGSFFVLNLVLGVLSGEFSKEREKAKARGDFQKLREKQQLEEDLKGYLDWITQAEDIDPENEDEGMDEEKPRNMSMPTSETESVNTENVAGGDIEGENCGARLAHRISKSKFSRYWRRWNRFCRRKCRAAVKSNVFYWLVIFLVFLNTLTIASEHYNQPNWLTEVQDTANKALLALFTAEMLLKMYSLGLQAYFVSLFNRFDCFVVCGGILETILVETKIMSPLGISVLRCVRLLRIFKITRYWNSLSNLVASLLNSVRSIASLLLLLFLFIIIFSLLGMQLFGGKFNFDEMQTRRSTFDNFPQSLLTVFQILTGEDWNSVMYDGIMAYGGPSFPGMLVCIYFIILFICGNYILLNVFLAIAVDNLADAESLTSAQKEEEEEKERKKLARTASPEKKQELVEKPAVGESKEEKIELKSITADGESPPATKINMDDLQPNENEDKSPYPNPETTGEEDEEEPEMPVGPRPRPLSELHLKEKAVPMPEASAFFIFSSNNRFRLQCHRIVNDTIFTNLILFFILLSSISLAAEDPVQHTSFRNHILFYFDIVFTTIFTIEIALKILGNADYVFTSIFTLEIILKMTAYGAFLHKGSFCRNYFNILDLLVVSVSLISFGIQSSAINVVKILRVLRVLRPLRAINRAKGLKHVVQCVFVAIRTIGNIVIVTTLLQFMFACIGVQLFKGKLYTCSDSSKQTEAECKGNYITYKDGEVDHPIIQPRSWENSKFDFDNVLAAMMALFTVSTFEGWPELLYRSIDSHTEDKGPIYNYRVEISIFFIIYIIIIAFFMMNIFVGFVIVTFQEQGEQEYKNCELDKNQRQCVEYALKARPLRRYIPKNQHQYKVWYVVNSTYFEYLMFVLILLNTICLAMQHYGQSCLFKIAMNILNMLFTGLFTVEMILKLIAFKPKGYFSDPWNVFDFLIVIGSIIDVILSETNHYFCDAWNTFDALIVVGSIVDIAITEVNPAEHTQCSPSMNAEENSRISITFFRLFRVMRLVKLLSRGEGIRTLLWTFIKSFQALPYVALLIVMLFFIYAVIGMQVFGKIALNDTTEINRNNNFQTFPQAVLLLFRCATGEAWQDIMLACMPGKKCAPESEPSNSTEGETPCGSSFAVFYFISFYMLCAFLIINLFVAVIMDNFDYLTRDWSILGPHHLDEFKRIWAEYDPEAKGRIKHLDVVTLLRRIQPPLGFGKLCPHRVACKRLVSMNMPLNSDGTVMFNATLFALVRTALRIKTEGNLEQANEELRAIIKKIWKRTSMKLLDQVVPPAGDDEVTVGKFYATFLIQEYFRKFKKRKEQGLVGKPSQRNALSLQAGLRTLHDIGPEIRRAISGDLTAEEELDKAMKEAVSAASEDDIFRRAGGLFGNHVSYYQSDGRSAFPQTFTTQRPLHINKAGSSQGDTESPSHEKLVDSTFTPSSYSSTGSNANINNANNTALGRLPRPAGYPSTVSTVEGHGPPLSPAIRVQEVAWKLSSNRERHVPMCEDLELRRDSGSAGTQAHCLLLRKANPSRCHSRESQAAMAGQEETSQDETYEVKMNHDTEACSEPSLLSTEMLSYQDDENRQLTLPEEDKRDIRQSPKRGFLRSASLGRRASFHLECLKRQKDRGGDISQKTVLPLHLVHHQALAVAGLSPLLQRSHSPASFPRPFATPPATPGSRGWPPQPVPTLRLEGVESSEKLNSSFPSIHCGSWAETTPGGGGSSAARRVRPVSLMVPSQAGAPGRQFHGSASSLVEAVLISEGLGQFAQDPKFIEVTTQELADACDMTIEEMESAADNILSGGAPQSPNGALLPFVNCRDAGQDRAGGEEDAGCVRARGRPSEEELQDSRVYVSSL
Sequence of Cytochrome P450 2D6 (P10635 whole entry): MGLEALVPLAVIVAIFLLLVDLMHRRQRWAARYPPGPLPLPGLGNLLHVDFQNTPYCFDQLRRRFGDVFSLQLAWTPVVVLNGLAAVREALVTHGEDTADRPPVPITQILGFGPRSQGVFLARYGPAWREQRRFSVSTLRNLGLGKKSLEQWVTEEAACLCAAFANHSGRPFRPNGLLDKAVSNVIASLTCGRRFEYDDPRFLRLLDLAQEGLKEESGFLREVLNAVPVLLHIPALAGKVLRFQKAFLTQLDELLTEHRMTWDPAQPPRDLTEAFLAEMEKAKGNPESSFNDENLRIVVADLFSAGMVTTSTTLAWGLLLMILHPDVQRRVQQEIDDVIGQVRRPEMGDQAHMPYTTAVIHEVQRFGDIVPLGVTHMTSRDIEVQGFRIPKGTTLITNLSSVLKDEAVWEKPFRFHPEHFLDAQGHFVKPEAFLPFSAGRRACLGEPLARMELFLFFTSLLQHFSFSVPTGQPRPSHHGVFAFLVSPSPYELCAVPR

Regarding `C[C@H](Nc1ccc2c(c1)OCCn1cc(N3C(=O)OC[C@H]3C(F)F)nc1-2)C(N)=O` [INAVOLISIB], in series [1], the logD was determined as 0.8. This compound registered a bioavailability in [2] of 58%. The solubility thermodynamic in series [3] was determined as 36 µg/mL (≈ 88.4 µM). The same compound gave a pKa in series [4] of 3.3. Further, in series [5], the EC50 amounted to 0.01 µM. Besides, the fraction unbound at 4 h, 5 µM in [6] worked out at 0.589. In the series listed under Homo sapiens, this compound showed an inhibition above 80%. In addition, the inhibition at 10 µM at hERG (KCNH2) and at CaV1.2 was below 20% each time. The IC50 on Cytochrome P450 3A4, against Cytochrome P450 2D6, at Cytochrome P450 2C8 and against Cytochrome P450 2C19 was above 10 µM each time.
